Data: ChEMBL document CHEMBL2074350, “Immunosuppressants FK506 and rapamycin function as reversal agents of the multidrug resistance phenotype” (Blood, 1992)

Molecular target: ATP-dependent translocase ABCB1 (Homo sapiens, UniProt P08183)
Assay: TP_TRANSPORTER: increase in Daunomycin intracellular accumulation (Daunomycin: 10 uM, Rapamycin: 5 uM) in CEM/VBL 250 cells
Type: functional, cell-based
Conditions: cem/vbl 250, 5 µM

Chain of ATP-dependent translocase ABCB1 (P08183 whole entry): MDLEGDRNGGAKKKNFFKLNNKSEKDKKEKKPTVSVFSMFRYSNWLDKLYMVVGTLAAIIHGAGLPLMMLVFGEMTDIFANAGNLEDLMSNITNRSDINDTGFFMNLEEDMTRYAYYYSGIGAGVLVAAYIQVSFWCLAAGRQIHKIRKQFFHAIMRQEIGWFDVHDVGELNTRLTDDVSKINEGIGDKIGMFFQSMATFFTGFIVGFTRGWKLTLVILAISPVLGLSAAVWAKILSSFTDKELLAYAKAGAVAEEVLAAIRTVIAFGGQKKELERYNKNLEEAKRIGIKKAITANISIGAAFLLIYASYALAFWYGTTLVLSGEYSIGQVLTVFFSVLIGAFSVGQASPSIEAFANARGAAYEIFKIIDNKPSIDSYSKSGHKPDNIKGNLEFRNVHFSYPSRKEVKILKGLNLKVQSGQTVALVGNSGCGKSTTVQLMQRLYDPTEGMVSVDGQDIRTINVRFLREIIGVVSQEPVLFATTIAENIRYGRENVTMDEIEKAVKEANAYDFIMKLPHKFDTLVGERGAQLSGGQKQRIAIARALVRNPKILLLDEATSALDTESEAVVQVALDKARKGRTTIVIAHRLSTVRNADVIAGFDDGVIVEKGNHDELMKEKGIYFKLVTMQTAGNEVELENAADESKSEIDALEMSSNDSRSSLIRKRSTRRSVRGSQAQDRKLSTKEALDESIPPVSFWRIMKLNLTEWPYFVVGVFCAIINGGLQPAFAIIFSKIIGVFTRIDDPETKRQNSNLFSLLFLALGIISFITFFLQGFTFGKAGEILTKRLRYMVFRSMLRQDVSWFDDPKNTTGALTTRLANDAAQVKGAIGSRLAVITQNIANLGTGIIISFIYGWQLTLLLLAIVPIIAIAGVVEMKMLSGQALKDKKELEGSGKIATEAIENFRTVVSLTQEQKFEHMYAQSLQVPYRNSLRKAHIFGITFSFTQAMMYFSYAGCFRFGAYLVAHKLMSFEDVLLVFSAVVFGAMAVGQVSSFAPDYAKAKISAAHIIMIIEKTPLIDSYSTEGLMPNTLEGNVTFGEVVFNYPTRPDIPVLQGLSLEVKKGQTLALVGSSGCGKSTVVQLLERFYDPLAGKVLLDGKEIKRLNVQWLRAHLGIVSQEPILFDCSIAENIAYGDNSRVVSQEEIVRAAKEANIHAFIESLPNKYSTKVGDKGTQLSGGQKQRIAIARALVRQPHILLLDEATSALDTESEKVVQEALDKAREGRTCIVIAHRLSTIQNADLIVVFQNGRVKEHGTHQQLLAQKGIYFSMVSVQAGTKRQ

**Q.** Which Activity does the source give for `CO[C@H]1C[C@@H]2CC[C@@H](C)[C@@](O)(O2)C(=O)C(=O)N2CCCC[C@H]2C(=O)O[C@H]([C@H](C)C[C@@H]2CC[C@@H](O)[C@H](OC)C2)CC(=O)[C@H](C)/C=C(\C)[C@@H](O)[C@@H](OC)C(=O)[C@H](C)C[C@H](C)/C=C/C=C/C=C/1C` [SIROLIMUS] here?
**A.** Its Activity is “inhibitor [(at a rough estimate) 7-fold]”.
